Columns and labels:
[1] = target: human Cereblon WT GST-tagged protein (Homo sapiens (Human), UniProt Q96SW2); assay: CRBN-binding affinity, HTRF (CEREBLON BINDING kit, CISBIO); conditions: HTRF inhibitory activity
Summary of the method: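 HTRF competition format: test compound displaces Thalidomide-Red from GST-tagged human Cereblon WT, detected with a Eu-labelled anti-GST antibody. Percent CRBN binding inhibition was derived from the 620 nm signal, normalized to solvent-control and protein-free blank wells.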

IKZF1 = IKZF1 (Homo sapiens (Human), UniProt Q13422+Q96SW2); assay: Western blot, substrate protein expression in hPBMC: IKZF1; assay type: cell-based; conditions: hPBMC, compound 500 nM, 24 hours, Western blot
IKZF1, sequence (Q13422 whole entry): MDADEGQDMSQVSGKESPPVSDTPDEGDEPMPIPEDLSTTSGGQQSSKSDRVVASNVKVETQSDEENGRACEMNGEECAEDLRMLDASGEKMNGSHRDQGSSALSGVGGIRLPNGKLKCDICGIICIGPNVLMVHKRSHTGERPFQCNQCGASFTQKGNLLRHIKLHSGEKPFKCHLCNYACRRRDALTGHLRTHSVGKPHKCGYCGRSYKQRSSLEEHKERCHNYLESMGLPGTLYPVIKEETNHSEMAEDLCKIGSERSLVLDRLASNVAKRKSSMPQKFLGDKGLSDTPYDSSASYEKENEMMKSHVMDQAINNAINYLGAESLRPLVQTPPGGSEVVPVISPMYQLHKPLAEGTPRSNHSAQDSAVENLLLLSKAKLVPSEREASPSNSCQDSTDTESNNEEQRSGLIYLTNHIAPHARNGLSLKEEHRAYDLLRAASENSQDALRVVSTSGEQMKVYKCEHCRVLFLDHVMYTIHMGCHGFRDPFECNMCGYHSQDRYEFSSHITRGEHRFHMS
IKZF1, sequence (Q96SW2 whole entry): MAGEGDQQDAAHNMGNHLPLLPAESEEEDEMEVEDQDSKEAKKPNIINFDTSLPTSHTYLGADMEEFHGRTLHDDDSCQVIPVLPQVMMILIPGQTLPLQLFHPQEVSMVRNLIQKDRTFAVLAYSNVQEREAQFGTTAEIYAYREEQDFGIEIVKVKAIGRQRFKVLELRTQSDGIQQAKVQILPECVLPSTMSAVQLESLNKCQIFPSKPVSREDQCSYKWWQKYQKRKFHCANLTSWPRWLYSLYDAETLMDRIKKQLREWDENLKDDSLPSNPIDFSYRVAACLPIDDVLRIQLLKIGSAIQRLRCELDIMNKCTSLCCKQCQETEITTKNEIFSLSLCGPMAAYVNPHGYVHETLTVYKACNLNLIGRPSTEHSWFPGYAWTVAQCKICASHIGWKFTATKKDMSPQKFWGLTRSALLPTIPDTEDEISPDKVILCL
IKZF1, sequence (Q16531 whole entry partner): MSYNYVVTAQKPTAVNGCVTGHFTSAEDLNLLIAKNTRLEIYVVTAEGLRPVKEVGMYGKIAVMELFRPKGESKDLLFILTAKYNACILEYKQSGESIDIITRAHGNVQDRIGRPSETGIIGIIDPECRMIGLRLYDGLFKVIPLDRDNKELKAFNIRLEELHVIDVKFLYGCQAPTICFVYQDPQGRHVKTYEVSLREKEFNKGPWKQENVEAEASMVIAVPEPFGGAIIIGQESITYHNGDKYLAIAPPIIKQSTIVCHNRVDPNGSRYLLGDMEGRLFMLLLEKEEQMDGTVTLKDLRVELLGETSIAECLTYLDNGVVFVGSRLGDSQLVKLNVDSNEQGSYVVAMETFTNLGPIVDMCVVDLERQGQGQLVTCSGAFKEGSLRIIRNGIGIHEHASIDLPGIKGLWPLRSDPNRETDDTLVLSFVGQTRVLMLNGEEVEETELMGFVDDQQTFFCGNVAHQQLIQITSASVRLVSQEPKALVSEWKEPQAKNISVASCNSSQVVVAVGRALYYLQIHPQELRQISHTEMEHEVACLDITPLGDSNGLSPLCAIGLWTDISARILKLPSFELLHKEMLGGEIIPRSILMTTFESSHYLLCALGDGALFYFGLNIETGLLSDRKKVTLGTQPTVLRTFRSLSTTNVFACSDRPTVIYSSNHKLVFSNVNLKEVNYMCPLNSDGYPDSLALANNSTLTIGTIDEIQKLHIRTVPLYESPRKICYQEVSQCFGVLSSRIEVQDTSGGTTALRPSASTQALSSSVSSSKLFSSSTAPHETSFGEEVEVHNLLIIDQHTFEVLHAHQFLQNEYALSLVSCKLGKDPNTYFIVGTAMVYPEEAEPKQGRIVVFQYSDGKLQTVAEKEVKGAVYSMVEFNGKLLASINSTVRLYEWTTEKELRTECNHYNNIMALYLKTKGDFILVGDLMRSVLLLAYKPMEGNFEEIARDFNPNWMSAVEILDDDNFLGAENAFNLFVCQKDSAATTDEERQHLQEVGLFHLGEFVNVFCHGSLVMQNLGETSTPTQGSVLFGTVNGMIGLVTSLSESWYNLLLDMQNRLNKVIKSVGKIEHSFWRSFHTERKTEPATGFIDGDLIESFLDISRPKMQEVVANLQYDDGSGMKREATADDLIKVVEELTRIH
Summary of the method: (§1)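 hPBMC, 1×10^6 cells/mL, 24 h compound exposure; RIPA lysis, BCA protein assay, SDS-PAGE, NC membrane immunoblot. Densitometry vs internal control → % protein remaining; degradation % = 100% − remaining; DC50 = conc. at 50% of DMSO band signal.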

GSPT1 = GSPT1 (Homo sapiens (Human), UniProt P15170+Q96SW2); assay: Western blot, substrate protein expression in hPBMC: GSPT1; assay type: cell-based; conditions: hPBMC, compound 500 nM, 24 hours, Western blot
GSPT1, sequence (P15170 whole entry): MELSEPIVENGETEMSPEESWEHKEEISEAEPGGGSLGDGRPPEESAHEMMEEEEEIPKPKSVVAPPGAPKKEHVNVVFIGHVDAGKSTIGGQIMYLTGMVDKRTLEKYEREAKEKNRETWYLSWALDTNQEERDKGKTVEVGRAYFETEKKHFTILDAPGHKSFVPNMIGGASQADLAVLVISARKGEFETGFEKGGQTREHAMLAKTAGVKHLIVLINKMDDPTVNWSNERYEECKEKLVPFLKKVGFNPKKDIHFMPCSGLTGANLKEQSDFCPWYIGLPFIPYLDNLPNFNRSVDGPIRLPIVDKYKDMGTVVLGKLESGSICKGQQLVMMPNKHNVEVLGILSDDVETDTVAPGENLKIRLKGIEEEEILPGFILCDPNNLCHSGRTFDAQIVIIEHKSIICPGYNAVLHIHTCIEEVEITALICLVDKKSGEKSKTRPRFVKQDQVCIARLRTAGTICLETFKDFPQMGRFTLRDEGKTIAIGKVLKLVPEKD
GSPT1, sequence (Q96SW2 whole entry): as the sequence (Q96SW2 whole entry) above
GSPT1, sequence (Q16531 whole entry partner): as the sequence (Q16531 whole entry partner) above
Summary of the method: as §1

IKZF3 = IKZF3 (Homo sapiens (Human), UniProt Q96SW2+Q9UKT9); assay: Western blot, substrate protein expression in hPBMC: IKZF3; assay type: cell-based; conditions: hPBMC, compound 500 nM, 24 hours, Western blot
IKZF3, sequence (Q9UKT9 whole entry): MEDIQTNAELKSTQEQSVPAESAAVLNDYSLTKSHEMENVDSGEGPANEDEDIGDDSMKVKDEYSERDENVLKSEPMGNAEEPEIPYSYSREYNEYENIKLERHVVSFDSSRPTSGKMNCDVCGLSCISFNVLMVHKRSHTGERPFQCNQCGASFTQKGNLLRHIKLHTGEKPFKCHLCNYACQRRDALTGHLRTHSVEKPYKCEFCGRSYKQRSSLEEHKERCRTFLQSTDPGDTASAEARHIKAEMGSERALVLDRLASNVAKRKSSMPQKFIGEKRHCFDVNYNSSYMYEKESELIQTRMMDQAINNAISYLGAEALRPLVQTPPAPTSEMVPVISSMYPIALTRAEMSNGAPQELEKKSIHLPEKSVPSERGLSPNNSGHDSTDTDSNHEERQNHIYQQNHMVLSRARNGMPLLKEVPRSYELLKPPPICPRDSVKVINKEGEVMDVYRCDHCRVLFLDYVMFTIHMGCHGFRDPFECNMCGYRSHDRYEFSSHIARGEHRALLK
IKZF3, sequence (Q96SW2 whole entry): as the sequence (Q96SW2 whole entry) above
IKZF3, sequence (Q16531 whole entry partner): as the sequence (Q16531 whole entry partner) above
Summary of the method: as §1

human Cereblon WT GST-tagged protein, sequence (Q96SW2 whole entry): as the sequence (Q96SW2 whole entry) above

Row | Structure (SMILES) | IC50 [1] [nM] | substrate protein remaining % IKZF1 (IKZF1) | substrate protein remaining % GSPT1 (GSPT1) | substrate protein remaining % IKZF3 (IKZF3)
1 | O=C1CCC(N2Cc3c(CN4CCC5(CC4)CCN(C(c4ccccc4)c4ccccc4)CC5)cccc3C2=O)C(=O)N1 (centres unmarked) [GT-06027, 3-(4-((9-benzhydryl-3,9-diazaspiro[5.5]undecan-3-yl)methyl)-1-oxoisoindolin-2-yl)piperidine-2,6-dione] | 1000 to 1900 | B (B represents substrate protein remaining % > 50%) | A (A represents 0% ≤ substrate protein remaining % ≤ 50%) | B (B represents substrate protein remaining % > 50%)
2 | O=C1CCC(N2Cc3c(ccc(CN4CC5CN(C(c6ccccc6)c6ccccc6)CC5C4)c3F)C2=O)C(=O)N1 (centres unmarked) [GT-06044, 3-(5-((5-benzhydrylhexahydropyrrolo[3,4-c]pyrrol-2 (1H)-yl)methyl)-4-fluoro-1-oxoisoindolin-2-yl)piperidine-2,6-dione] | < 500 | B (B represents substrate protein remaining % > 50%) | A (A represents 0% ≤ substrate protein remaining % ≤ 50%) | A (A represents 0% ≤ substrate protein remaining % ≤ 50%)
3 | O=C1CCC(N2Cc3c(CN4CC5CN(C(c6ccccc6)c6ccccc6)CC5C4)cccc3C2=O)C(=O)N1 (centres unmarked) [GT-06052, 3-(4-((5-benzhydrylhexahydropyrrolo[3,4-c]pyrrol-2 (1H)-yl)methyl)-1-oxoisoindolin-2-yl)piperidine-2,6-dione] | < 500 | B (B represents substrate protein remaining % > 50%) | A (A represents 0% ≤ substrate protein remaining % ≤ 50%) | B (B represents substrate protein remaining % > 50%)
4 | O=C1CCC(N2Cc3cc(C(=O)N4CCC5(CCN(C(c6ccccc6)c6ccccc6)CC5)C4)ccc3C2=O)C(=O)N1 (centres unmarked) [GT-06063, 3-(5-(8-benzhydryl-2,8-diazaspiro[4.5]decane-2-carbonyl)-1-oxoisoindolin-2-yl)piperidine-2,6-dione] | 500 to 1000 | B (B represents substrate protein remaining % > 50%) | A (A represents 0% ≤ substrate protein remaining % ≤ 50%) | B (B represents substrate protein remaining % > 50%)
5 | O=C1CCC(N2Cc3cc(C(=O)N4CCC5(CC4)CCN(C(c4ccccc4)c4ccccc4)CC5)ccc3C2=O)C(=O)N1 (centres unmarked) [GT-06065, 3-(5-(9-benzhydryl-3,9-diazaspiro[5.5]undecane-3-carbonyl)-1-oxoisoindolin-2-yl)piperidine-2,6-dione] | < 500 | B (B represents substrate protein remaining % > 50%) | A (A represents 0% ≤ substrate protein remaining % ≤ 50%) | B (B represents substrate protein remaining % > 50%)
6 | O=C1CCC(N2Cc3cc(C(=O)N4CC5CN(C(c6ccccc6)c6ccccc6)CC5C4)ccc3C2=O)C(=O)N1 (centres unmarked) [GT-06067, 3-(5-(5-benzhydryloctahydropyrrolo[3,4-c]pyrrole-2-carbonyl)-1-oxoisoindolin-2-yl)piperidine-2,6-dione] | 500 to 1000 | B (B represents substrate protein remaining % > 50%) | A (A represents 0% ≤ substrate protein remaining % ≤ 50%) | B (B represents substrate protein remaining % > 50%)
7 | O=C1CCC(N2Cc3cc(C(=O)N4CCN(C(c5ccccc5)c5ccccc5)CC4C(F)(F)F)cc(F)c3C2=O)C(=O)N1 (centres unmarked) [GT-06090, 3-(5-(4-benzhydryl-2-(trifluoromethyl)piperazine-1-carbonyl)-7-fluoro-1-oxoisoindolin-2-yl)piperidine-2,6-dione] | 1000 to 1900 | B (B represents substrate protein remaining % > 50%) | A (A represents 0% ≤ substrate protein remaining % ≤ 50%) | B (B represents substrate protein remaining % > 50%)
8 | C[C@@H]1CN(C(c2ccccc2)c2ccccc2)CCN1C(=O)c1cc(F)c2c(c1)CN(C1CCC(=O)NC1=O)C2=O (stereo partly drawn) [GT-06093, 3-(5-((R)-4-benzhydryl-2-methylpiperazine-1-carbonyl)-7-fluoro-1-oxoisoindolin-2-yl)piperidine-2,6-dione] | 500 to 1000 | B (B represents substrate protein remaining % > 50%) | A (A represents 0% ≤ substrate protein remaining % ≤ 50%) | B (B represents substrate protein remaining % > 50%)
9 | O=C1CCC(N2Cc3c(ccc(CN4CCN(C(c5ccccc5)c5ccccc5)CC4C(F)(F)F)c3F)C2=O)C(=O)N1 (centres unmarked) [GT-06096, 3-(5-((4-benzhydryl-2-(trifluoromethyl)piperazin-1-yl)methyl)-4-fluoro-1-oxoisoindolin-2-yl)piperidine-2,6-dione] | 500 to 1000 | B (B represents substrate protein remaining % > 50%) | A (A represents 0% ≤ substrate protein remaining % ≤ 50%) | A (A represents 0% ≤ substrate protein remaining % ≤ 50%)

Second part, led by results:

Row | IC50 [1] [nM] | Structure (SMILES) | substrate protein remaining % IKZF1 (IKZF1) | substrate protein remaining % GSPT1 (GSPT1) | substrate protein remaining % IKZF3 (IKZF3)
10 | < 500 | O=C1CCC(N2Cc3cc(CN4CC5CN(C(c6ccccc6)c6ccccc6)CC5C4)cc(F)c3C2=O)C(=O)N1 (centres unmarked) [GT-06045, 3-(5-((5-benzhydrylhexahydropyrrolo[3,4-c]pyrrol-2 (1H)-yl)methyl)-7-fluoro-1-oxoisoindolin-2-yl)piperidine-2,6-dione] | B (B represents substrate protein remaining % > 50%) | A (A represents 0% ≤ substrate protein remaining % ≤ 50%) | B (B represents substrate protein remaining % > 50%)
11 | 500 to 1000 | C[C@@H]1CN(C(c2ccccc2)c2ccccc2)CCN1Cc1cc2c(cc1F)C(=O)N(C1CCC(=O)NC1=O)C2 (stereo partly drawn) [GT-06046, 3-(5-(((R)-4-benzhydryl-2-methylpiperazin-1-yl)methyl)-6-fluoro-1-oxoisoindolin-2-yl)piperidine-2,6-dione] | B (B represents substrate protein remaining % > 50%) | A (A represents 0% ≤ substrate protein remaining % ≤ 50%) | B (B represents substrate protein remaining % > 50%)
12 | < 500 | O=C1CCC(N2Cc3cc(CN4CCN(C5c6cc(Cl)ccc6-c6ccc(Cl)cc65)CC4)ccc3C2=O)C(=O)N1 (centres unmarked) [GT-06048, 3-(5-((4-(2,7-dichloro-9H-fluoren-9-yl)piperazin-1-yl)methyl)-1-oxoisoindolin-2-yl)piperidine-2,6-dione] | A (A represents 0% ≤ substrate protein remaining % ≤ 50%) | A (A represents 0% ≤ substrate protein remaining % ≤ 50%) | A (A represents 0% ≤ substrate protein remaining % ≤ 50%)
13 | < 500 | O=C1CCC(N2Cc3cc(CN4CC5CN(C(c6ccccc6)c6ccccc6)CC5C4)ccc3C2=O)C(=O)N1 (centres unmarked) [GT-06050, 3-(5-((5-benzhydrylhexahydropyrrolo[3,4-c]pyrrol-2 (1H)-yl)methyl)-1-oxoisoindolin-2-yl)piperidine-2,6-dione] | B (B represents substrate protein remaining % > 50%) | A (A represents 0% ≤ substrate protein remaining % ≤ 50%) | B (B represents substrate protein remaining % > 50%)
14 | 500 to 1000 | CC1(C)CN(C(=O)c2ccc3c(c2)CN(C2CCC(=O)NC2=O)C3=O)CCN1C(c1ccccc1)c1ccccc1 (centres unmarked) [GT-06061, 3-(5-(4-benzhydryl-3,3-dimethylpiperazine-1-carbonyl)-1-oxoisoindolin-2-yl)piperidine-2,6-dione] | B (B represents substrate protein remaining % > 50%) | A (A represents 0% ≤ substrate protein remaining % ≤ 50%) | B (B represents substrate protein remaining % > 50%)
15 | 500 to 1000 | O=C1CCC(N2Cc3cc(C(=O)N4CCN(C(c5ccccc5)c5ccccc5)CC4C(F)(F)F)ccc3C2=O)C(=O)N1 (centres unmarked) [GT-06071, 3-(5-(4-benzhydryl-2-(trifluoromethyl)piperazine-1-carbonyl)-1-oxoisoindolin-2-yl)piperidine-2,6-dione] | B (B represents substrate protein remaining % > 50%) | A (A represents 0% ≤ substrate protein remaining % ≤ 50%) | B (B represents substrate protein remaining % > 50%)
16 | < 500 | C[C@@H]1CN(C(c2ccccc2)c2ccccc2)CCN1C(=O)c1ccc2c(c1)CN(C1CCC(=O)NC1=O)C2=O (stereo partly drawn) [GT-06092, 3-(5-((R)-4-benzhydryl-2-methylpiperazine-1-carbonyl)-1-oxoisoindolin-2-yl)piperidine-2,6-dione] | B (B represents substrate protein remaining % > 50%) | A (A represents 0% ≤ substrate protein remaining % ≤ 50%) | B (B represents substrate protein remaining % > 50%)
17 | 500 to 1000 | O=C1CCC(N2Cc3cc(CN4CCN(C(c5ccccc5)c5ccccc5)CC4C(F)(F)F)ccc3C2=O)C(=O)N1 (centres unmarked) [GT-06095, 3-(5-((4-benzhydryl-2-(trifluoromethyl)piperazin-1-yl)methyl)-1-oxoisoindolin-2-yl)piperidine-2,6-dione] | B (B represents substrate protein remaining % > 50%) | A (A represents 0% ≤ substrate protein remaining % ≤ 50%) | B (B represents substrate protein remaining % > 50%)

Reference: patent US20250320193A1, “OXOISOINDOLINYL SUBSTITUTED PIPERIDINEDIONE DERIVATIVE AND USE THEREOF” (GLUETACS THERAPEUTICS (SHANGHAI) CO., LTD., priority 2022, published 2025)
